Measurements published in patent publication US20230219963A1, “PYRROLO[2,3-D]PYRIMIDINE DERIVATIVES” (Pfizer Inc., priority 2020, published 2023).

Columns and labels:
JAK3 = molecular target: T1, JAK3 (Homo sapiens, UniProt P52333); assay: JAK Caliper Enzyme Assay at 1 mM ATP (JAK3); type: biochemical
T1 sequence (P52333 1-1124): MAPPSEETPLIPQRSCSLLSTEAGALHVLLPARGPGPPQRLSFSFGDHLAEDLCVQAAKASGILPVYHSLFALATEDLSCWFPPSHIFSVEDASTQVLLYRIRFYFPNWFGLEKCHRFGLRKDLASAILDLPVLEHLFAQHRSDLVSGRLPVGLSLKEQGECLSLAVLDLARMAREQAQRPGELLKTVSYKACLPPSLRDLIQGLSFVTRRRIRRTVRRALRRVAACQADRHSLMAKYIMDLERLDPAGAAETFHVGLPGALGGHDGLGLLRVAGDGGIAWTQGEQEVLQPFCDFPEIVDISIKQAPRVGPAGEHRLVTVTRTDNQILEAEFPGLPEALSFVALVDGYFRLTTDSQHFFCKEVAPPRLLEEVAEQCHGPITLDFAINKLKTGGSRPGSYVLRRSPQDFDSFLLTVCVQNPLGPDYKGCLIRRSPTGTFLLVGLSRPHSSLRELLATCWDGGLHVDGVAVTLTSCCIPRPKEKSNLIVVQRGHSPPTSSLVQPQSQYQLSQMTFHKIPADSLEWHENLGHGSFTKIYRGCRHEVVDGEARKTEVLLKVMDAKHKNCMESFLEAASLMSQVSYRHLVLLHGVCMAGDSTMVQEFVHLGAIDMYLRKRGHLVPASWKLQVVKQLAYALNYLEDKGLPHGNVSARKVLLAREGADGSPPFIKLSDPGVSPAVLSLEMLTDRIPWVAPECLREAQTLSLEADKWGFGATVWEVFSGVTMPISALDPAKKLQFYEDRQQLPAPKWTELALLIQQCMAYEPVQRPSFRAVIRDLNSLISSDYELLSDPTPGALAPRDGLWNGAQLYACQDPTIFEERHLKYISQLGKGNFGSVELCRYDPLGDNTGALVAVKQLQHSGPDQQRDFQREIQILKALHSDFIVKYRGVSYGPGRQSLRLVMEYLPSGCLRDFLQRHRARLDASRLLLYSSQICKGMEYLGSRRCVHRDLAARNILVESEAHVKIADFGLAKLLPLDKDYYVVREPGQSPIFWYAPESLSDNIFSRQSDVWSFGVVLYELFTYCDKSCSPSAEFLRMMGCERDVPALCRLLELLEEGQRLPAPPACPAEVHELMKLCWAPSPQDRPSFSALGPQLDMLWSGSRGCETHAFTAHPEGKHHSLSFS
Method: (§1) JAK Caliper Enzyme Assay at 1 mM ATP
(§2) Test article was solubilized in dimethyl sulfoxide (DMSO) to a stock concentration of 30 mM. An 11-point half log dilution series was created in DMSO with a top concentration of 600 μM. […] The compound plates were diluted 1 to 60 resulting in a top final assay compound concentration of 10 μM and a 2% DMSO concentration. Test article and assay controls were added to a 384-well plate. Reaction mixtures contained 20 mM HEPES, pH 7.4, 10 mM magnesium chloride, 0.01% bovine serum albumin (BSA), 0.0005% Tween 20, 1 mM ATP and 1 μM peptide substrate. […] The assays were initiated by the addition of 20 nM JAK1, 1 nM JAK2, 1 nM JAK3 or 1 nM TYK2 enzyme and were incubated at room temperature for three hours for JAK1, 60 minutes for JAK2, 75 minutes for JAK3 or 135 minutes for TYK2. Enzyme concentrations and incubation times were optimized for each new enzyme preps and were modified slightly over time to ensure 20%-30% phosphorylation. The assays were stopped with a final concentration of 10 mM EDTA, 0.1% Coating Reagent and 100 mM HEPES, pH=7.4. The assay plates were placed on a Caliper Life Science Lab Chip 3000 (LC3000) instrument, and each well was sampled using appropriate separation conditions to measure the unphosphorylated and phosphorylated peptide.

JAK1 = JAK1 (Homo sapiens, UniProt P23458); assay: JAK Caliper Enzyme Assay at 1 mM ATP (JAK1); type: biochemical
Method: as §1, §2

Sequence of JAK1 (P23458 whole entry): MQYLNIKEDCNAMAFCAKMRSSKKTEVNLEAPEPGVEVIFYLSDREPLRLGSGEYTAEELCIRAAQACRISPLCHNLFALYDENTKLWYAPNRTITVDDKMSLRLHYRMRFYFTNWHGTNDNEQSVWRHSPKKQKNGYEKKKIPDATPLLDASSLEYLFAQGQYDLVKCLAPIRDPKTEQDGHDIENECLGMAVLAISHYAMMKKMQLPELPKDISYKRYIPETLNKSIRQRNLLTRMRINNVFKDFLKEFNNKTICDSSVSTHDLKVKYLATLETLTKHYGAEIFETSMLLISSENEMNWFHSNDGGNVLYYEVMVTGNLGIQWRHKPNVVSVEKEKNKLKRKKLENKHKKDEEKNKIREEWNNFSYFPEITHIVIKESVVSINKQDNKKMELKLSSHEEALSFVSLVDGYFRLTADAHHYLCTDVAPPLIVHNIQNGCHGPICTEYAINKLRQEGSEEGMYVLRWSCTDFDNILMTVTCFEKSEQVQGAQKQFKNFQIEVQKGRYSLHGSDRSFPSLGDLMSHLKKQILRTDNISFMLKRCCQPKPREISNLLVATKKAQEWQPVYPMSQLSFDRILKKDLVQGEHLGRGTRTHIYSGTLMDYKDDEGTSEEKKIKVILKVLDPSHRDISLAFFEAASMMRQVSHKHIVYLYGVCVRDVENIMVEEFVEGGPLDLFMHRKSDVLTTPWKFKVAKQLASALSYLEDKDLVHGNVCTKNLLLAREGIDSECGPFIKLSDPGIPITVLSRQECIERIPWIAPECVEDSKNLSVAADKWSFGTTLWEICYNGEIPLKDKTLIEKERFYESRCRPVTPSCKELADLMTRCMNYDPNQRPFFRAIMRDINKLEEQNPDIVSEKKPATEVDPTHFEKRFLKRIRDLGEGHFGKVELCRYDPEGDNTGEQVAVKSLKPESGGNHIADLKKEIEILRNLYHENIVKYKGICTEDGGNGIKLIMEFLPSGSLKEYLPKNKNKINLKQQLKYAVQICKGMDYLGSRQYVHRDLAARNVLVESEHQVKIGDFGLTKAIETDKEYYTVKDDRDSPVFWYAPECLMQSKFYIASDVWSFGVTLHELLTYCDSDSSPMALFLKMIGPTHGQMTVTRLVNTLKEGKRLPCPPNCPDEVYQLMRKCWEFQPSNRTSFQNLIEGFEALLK

Row | IC50 (JAK3) [µM] | IC50 (JAK1) [nM] | Compound
1 | > 10 | 17.9 | C[C@H](O)CS(=O)(=O)N[C@H]1C[C@@H](N(C)c2ncnc3[nH]ccc23)C1 (single isomer, unassigned) [IA (M2)]
2 | > 10 | 56.7 | C[C@@H](O)CS(=O)(=O)N[C@H]1C[C@@H](N(C)c2ncnc3[nH]ccc23)C1 (single isomer, unassigned) [IC (M3)]
3 | > 10 | 43.4 | CN(c1ncnc2[nH]ccc12)[C@H]1C[C@@H](NS(=O)(=O)CCCO)C1 [IB (M1), 3-Hydroxy-N-(cis-3-(methyl(7H-pyrrolo[2,3-d]pyrimidin-4-yl)amino)cyclobutyl)propane-1-sulfonamide]
